From patent US20220227762A1, “AMIDE-SUBSTITUTED IMIDAZO COMPOUNDS AS SELECTIVE INHIBITORS OF INDOLEAMINE 2,3-DIOXYGENASES” (BEIGENE, LTD., priority 2019, published 2022)
Where two headings read alike, the source gives them in different places.

Columns and labels:
plasma protein = experiment: Plasma Protein Binding Assay (equilibrium dialysis); assay type: in vitro ADME; details: 50% plasma, Human plasma, 37° C., read-out: Plasma Protein Binding assay (fu %) Human
Procedure: Plasma Protein Binding Assay:
To evaluate the plasma protein binding extent, the bound (fb) and unbound (fu) fractions of test compound will be determined in vitro by equilibrium dialysis approach, using a 96-well dialysis device (HT Dialysis, Gales Ferry, Conn., USA). The equilibrium dialysis will be conducted in duplicate. A hundred and fifty μL of 50% plasma spiked with the test compound (final concentration of 5 μM) will be added into the donor side and 150 μL of Phosphate Buffer (PB) (0.002% Tween-80) into the corresponding receiving side. The device will be then sealed with adhesive film and shook at 80 rpm in the water bath at 37° C. for 6 h. At the end of incubation, 10 μL plasma sample will be transferred from the donor side into a 1.5 mL microcentrifuge tube, added with 90 μL PB (0.002% Tween-80), vortexed well and proteins precipitated by acetonitrile containing internal standard (IS). Ninety μL of PB (0.002% Tween-80) sample will be transferred from the receiver side into a 1.5 mL microcentrifuge tube, added with 10 μL 50% blank plasma, vortexed well and proteins precipitated by acetonitrile containing IS.
For recovery check, […] of the donor side loading samples will be aliquoted into a 1.5 mL microcentrifuge tube (in duplicate), added with 90 μL PB (0.002% Tween-80), vortexed well and proteins precipitated by acetonitrile containing IS.
For plasma stability check, 10 μL of the donor side loading samples will be aliquoted into a 1.5 mL microcentrifuge tube (in duplicate), incubated in the water bath at 37° C. for 6 h, added with 90 μL PB (0.002% Tween-80) solution at the end of the incubation, vortexed well and proteins precipitated by acetonitrile containing IS.
Appropriate LC-MS/MS methods will be developed for the analysis of the test or control compounds in the incubates.
The unbound fraction (fu) of the test compound and positive control compounds in 50% plasma will be calculated using the following equations.
Where CR is the area ratio of the test compounds to the IS in the receiving side, CD is the area ratio of the test compound to the IS in the corresponding donor side and D is the dilution factor of plasma.

IDO1 = target: T1, IDO1 (Homo sapiens, UniProt P14902); experiment: HeLa Cell-Based IDO1 Kyn (Kynurenine) Production Assay
T1 construct: endogenous in cells; host or cells: HeLa cells (American Type Culture Collection), induced with human recombinant IFN-γ
T1 sequence (P14902 whole entry): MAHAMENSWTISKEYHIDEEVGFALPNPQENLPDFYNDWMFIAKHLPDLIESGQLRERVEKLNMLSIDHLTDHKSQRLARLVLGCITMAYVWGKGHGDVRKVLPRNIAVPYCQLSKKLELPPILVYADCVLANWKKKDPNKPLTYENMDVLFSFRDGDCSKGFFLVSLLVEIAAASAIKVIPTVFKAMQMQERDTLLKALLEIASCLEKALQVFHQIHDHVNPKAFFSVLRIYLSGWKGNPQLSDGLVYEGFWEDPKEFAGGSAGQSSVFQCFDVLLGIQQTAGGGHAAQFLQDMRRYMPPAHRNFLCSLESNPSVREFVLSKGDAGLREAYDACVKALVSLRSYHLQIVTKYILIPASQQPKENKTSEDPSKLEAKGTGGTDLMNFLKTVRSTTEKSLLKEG
Procedure: HeLa Cell-Based IDO1 Kyn (Kynurenine) Production Assay:
The inhibitory activity of IDO1 inhibitors is determined by using a colorimetric reaction to measure Kyn generated from L-Trp (L-Tryptophon) oxidation by cellular IDO1 in HeLa cells after induction of IDO1 expression by IFN-γ. Hela cells were obtained from the American Type Culture Collection and recovered in 10% FBS-containing phenol red-free DMEM medium. Cells were plated onto a 96-well plate (100 μl/well) at 8000 cells per well and kept at 37° C. in a humidified incubator supplied with 5% CO2. 4 hours later, Human recombinant IFN-γ (8901SC, CST) was added to cells (final concentration 100 ng/mL) to stimulate endogenous IDO1. Compounds at different concentrations diluted in dimethylsulfoxide (DMSO) were added simultaneously with IFN-γ and 0.4 mM L-Trp. Cells were kept at 37° C. in a humidified incubator supplied with 5% CO2. After 48 hours of incubation, 100 μl supernatant from each well was removed to a new plate. The protein in the medium was precipitated with the addition of 8 μl 6N trichloroacetic acid. The plate was incubated at 60° C. for 30 minutes and then centrifugation at 2500 rpm for 10 minutes to remove sediments. 80 μl supernatants were carefully removed to a new clean plate and added with an equal volume of 2% 4-(Dimethylamino)benzaldehyde (D2004, Sigma) dissolved in glacial acetic acid. The absorbance at 480 nm wavelength derived from Kyn was measured using a PHERAstar FS plate reader (BMG LABTECH). The IC50 for each compound was derived from fitting the dose-response data to the four-parameter logistic model by using XLfit software (IDBS).

[1] = HeLa cells, IDO1 induced by IFN-γ, 0.4 mM L-Trp, 48 hours incubation, Kyn absorbance at 480 nm, read-out: Cell-Based EC50 (nM) Hela IDO1

Structure (SMILES)	fraction unbound at 6 h, 5 μM (plasma protein)	EC50 (IDO1; [1]) [nM]	EC50 (IDO1) [nM]
C[C@H](c1nc2cnc(C(=O)NC3CC3)cc2[nH]1)[C@H]1CC[C@@H](c2ccnc3ccc(F)cc32)CC1 [Example 22a, N-cyclopropyl-2-((S)-1-((1s,4R)-4-(6-fluoroquinolin-4-yl)cyclohexyl)ethyl)-1H-imidazo[4,5-c]pyridine-6-carboxamide]	0.0056	267	–
C[C@@H](c1nc2cc(C(=O)NC3CC3)ncc2[nH]1)[C@H]1CC[C@@H](c2ccnc3ccc(F)cc32)CC1 [Example 22b, N-cyclopropyl-2-((R)-1-((1s,4s)-4-(6-fluoroquinolin-4-yl)cyclohexyl)ethyl)-3H-imidazo[4,5-c]pyridine-6-carboxamide]	0.0047	0.96	–
C[C@@H](c1nc2cc(F)c(F)cc2[nH]1)[C@H]1CC[C@@H](c2ccnc3ccc(F)cc32)CC1 [Example 27b, 4-((1S,4s)-4-((R)-1-(5,6-difluoro-1H-benzo[d]imidazol-2-yl)ethyl)cyclohexyl)-6-fluoroquinoline, reference compound]	0.00034	–	0.42
C[C@@H](c1nc2cc(C(=O)NC3CCC3)ccc2[nH]1)[C@H]1CC[C@@H](c2ccnc3ccc(F)cc32)CC1 [Example 4, N-cyclobutyl-2-((R)-1-((1s,4S)-4-(6-fluoroquinolin-4-yl)cyclohexyl)ethyl)-1H-benzo[d]imidazole-6-carboxamide]	0.002	26.9	–
CC(c1nc2cc(C(=O)NC3CC3)c(F)cc2[nH]1)[C@H]1CC[C@@H](c2ccnc3ccc(F)cc32)CC1 (stereo partly drawn) [Example 20, N-cyclopropyl-6-fluoro-2-(1-((1s,4S)-4-(6-fluoroquinolin-4-yl)cyclohexyl)ethyl)-1H-benzo[d]imidazole-5-carboxamide]	–	6.9	–

Now from value to compound, other results behind:

fraction unbound at 6 h, 5 μM (plasma protein)	EC50 (IDO1; [1]) [nM]	Structure (SMILES)	EC50 (IDO1) [nM]
0.0053	3.83	CNC(=O)c1cc2[nH]c([C@H](C)[C@H]3CC[C@@H](c4ccnc5ccc(F)cc54)CC3)nc2cn1 [Example 23b, 2-((R)-1-((1s,4S)-4-(6-fluoroquinolin-4-yl)cyclohexyl)ethyl)-N-methyl-1H-imidazo[4,5-c]pyridine-6-carboxamide]	–
0.0002	0.85	C[C@@H](c1nc2c(F)c(F)c(F)cc2[nH]1)[C@H]1CC[C@@H](c2ccnc3ccc(F)cc32)CC1 [Example 29, 6-fluoro-4-((1S,4s)-4-((R)-1-(4,5,6-trifluoro-1H-benzo[d]imidazol-2-yl)ethyl)cyclohexyl)quinoline, reference compound]	–
0.00067	0.55	COC(=O)c1ccc2[nH]c([C@H](C)[C@H]3CC[C@@H](c4ccnc5ccc(F)cc54)CC3)nc2c1 [Example 28b, methyl 2-((R)-1-((1s,4S)-4-(6-fluoroquinolin-4-yl)cyclohexyl)ethyl)-1H-benzo[d]imidazole-5-carboxylate, reference compound]	–
0.0072	223	CNC(=O)c1cc2[nH]c([C@@H](C)[C@H]3CC[C@@H](c4ccnc5ccc(F)cc54)CC3)nc2cn1 [Example 23a, 2-((S)-1-((1s,4R)-4-(6-fluoroquinolin-4-yl)cyclohexyl)ethyl)-N-methyl-1H-imidazo[4,5-c]pyridine-6-carboxamide]	–
